From US20210322651A1, “SUPPRESSION OF NEOINTIMAL FORMATION FOLLOWING VASCULAR SURGERU USING CDK8 INHIBITORS” (Senex Biotechnology, Inc., priority 2014, published 2021)

Legend:
[1] = system: Sca-1+ VSCs; experiment: Sca-1+ cell growth in stem cell growth medium (daily cell count for 8 days; [3H]thymidine uptake); assay type: cell-based, mouse
Method: Aortic adventitial Sca-1^+ cells were isolated and cultured as previously described^24. Briefly, the aortic arch and root together with a proportion of the heart from male 8-wk-old C57BL/6J mice were removed. Under a dissection microscope, adventitial tissues were carefully harvested. The adventitial tissues were cut into pieces (about 0.5 mm^3) and explanted onto a 3.5 cm dish in a CO2 incubator at 37° C. for 2 h. The stem cell growth medium (CellGro SCGM, CellGenix, Germany) containing 10% FBS (Gibco, USA), 10 ng/ml leukemia inhibitory factor (Lif) (Millipore, Temecula, Calif., USA) and 0.1 mmol/L 2-mercaptoethanol (Invitrogen, USA) was added and incubated for 5-7 days. Medium was changed every 2 days. […] The purity and viability of isolated Sca-1^+ cells were evaluated by immunostaining and trypan blue exclusion, respectively. […]
The P5 Sca-1^+ VSCs or P32 RASMCs were serum-starved for 24 h, and then cultured with full stem cell or regular growth medium with or without simvastatin for 24 h. […] The radioactivity was measured as previously described^41.
P7 Sca-1^+ VSCs (4×10^4/well) were seeded in stem cell medium (SCGM+10% FBS+10 ng/ml Lif+0.1 mmol/L 2-mercaptoethanol) with or without simvastatin (3 μmol/L) or Senexin A (2.5 μmol/L) in 6-well plates. […] The number of cells was counted daily for 8 days.

[2] = system: resident VSCs (Sca-1+, NFM+, Sox17+ cells) in jugular vein isografts; experiment: Immunofluorescence staining of VSC and SMC markers (Sca-1, Ki67, SMA, NFM, Sox17) in jugular vein isografts after drug treatment; assay type: in vivo, C57BL/6J mice
Method: Male C57BL/6J mice were purchased from Vital River Laboratory Animal Technology Co. Ltd, Beijing, China, and housed under a 12:12 h light-dark cycle and given free access to food and water. All animal experiments were performed according to National Institutes of Health Guidelines for the Care and Use of Laboratory Animals and approved by the Institutional Animal Care and Usage Committees at Shandong University and the University of South Carolina, USA. The jugular vein transplantation was performed using different male C57BL/6J mice as donors and recipients. Briefly, 12-wk-old male C57BL/6J mice were anesthetized with pentobarbital sodium (50 mg/kg body weight, i.p.). The operation was performed under a dissecting microscope (SZ2-ILST, Olympus Corporation, Tokyo, Japan). The right common carotid artery of a male C57BL/6J mouse was mobilized and divided. […]
(§1) Tissue sections were subjected to hematoxylin and eosin (H&E) or immunofluorescence staining as previously described^41. […] Fluorescent images were acquired by Nikon Eclipse Ti or UltraVIEW®VOX confocal microscope and analyzed with the Volocity software (PerkinElmer, Waltham, Mass., USA). […]

[3] = system: rat aortic SMCs (RASMCs); experiment: RASMC proliferation ([3H]thymidine uptake); assay type: cell-based
Method: Rat aortic SMCs (RASMCs) were isolated from the thoracic aorta and cultured as described elsewhere^40. Enzymatically isolated SMCs from adult male Wistar rats were cultured in high glucose (4.5 g/L) Dulbecco's modified Eagle's medium (DMEM) (Cat#: 11995, Invitrogen, Grand Island, N.Y., USA) with 10% FBS (Invitrogen) in a CO2 incubator at 37° C. Subculture was performed when the cells were grown to the 70˜80% confluent state. We used the RASMCs at passage (P) 32 to do the [^3H]thymidine uptake assay. The P5 Sca-1^+ VSCs or P32 RASMCs were serum-starved for 24 h, and then cultured with full stem cell or regular growth medium with or without simvastatin for 24 h. [^3H]thymidine (1 μCi/ml) were added during the last 4 h of culture. The radioactivity was measured as previously described^41. […] Serum-starved RASMCs at passage 32 were treated with or without 10% FBS and Senexin (Senx A, 2.5 μM) for 24 h. n=4, *p<0.05 vs. control (−) in the same group.

[4] = system: jugular vein isografts; experiment: Neointimal formation in jugular vein isografts (cuff model; H&E and SMA staining, morphological analysis); assay type: in vivo, C57BL/6J mice
Method: Male C57BL/6J mice were purchased from Vital River Laboratory Animal Technology Co. Ltd, Beijing, China, and housed under a 12:12 h light-dark cycle and given free access to food and water. All animal experiments were performed according to National Institutes of Health Guidelines for the Care and Use of Laboratory Animals and approved by the Institutional Animal Care and Usage Committees at Shandong University and the University of South Carolina, USA. The jugular vein transplantation was performed using different male C57BL/6J mice as donors and recipients. Briefly, 12-wk-old male C57BL/6J mice were anesthetized with pentobarbital sodium (50 mg/kg body weight, i.p.). The operation was performed under a dissecting microscope (SZ2-ILST, Olympus Corporation, Tokyo, Japan). The right common carotid artery of a male C57BL/6J mouse was mobilized and divided. A 1-mm cuff with a 1-mm handle (0.65 mm in diameter outside and 0.5 mm inside, F 800/200/100/200, Portex Ltd) was placed on both ends of the artery, and the ends were reverted over the cuff and ligated with an 8-0 silk ligature (130715, 130715, LingQiao). External jugular vein (1 cm) from a donor mouse was harvested and washed with saline solution, and grafted between the 2 ends of the carotid artery without changing the direction of blood flow. The ischemia time of vein segments was less than 15 min. The results are shown in Examples 7-9.
Mice at 0, 1, 3, 7, 14, 21 and 42 days after transplantation (four randomly chosen mice at each time point) were anesthetized with pentobarbital sodium (50 mg/kg body weight, i.p.) and euthanized by exsanguination. […]
From the proximal end, the last section with the cuff tube was counted as #0. […]
as §1

[5] = Senexin B, concentration not given

SMILES | Sca-1+ cell proliferation ([1]; Senexin A 2.5 μM, growth curve 8 days) | Sca-1+ cell differentiation into SMCs ([2]; local Senexin A, 7 days) | rat aortic SMC (RASMC) growth ([3]; Senexin A 2.5 μM, 24 h, 10% FBS, passage 32) | neointimal formation in vein isografts ([4]; Senexin A (3 μmon) peri-vascular in Pluronic F-127 gel immediately after transplantation, 4 weeks) | duration of inhibitory effect on neointimal formation in vein grafts ([4]; short-term peri-vascular Senexin A, after transplantation) | Sca-1+ cell growth [1, 5] | Sca-1+ cell differentiation into SMCs ([2]; Senexin B 20 mg/kg/d intragastric from 3 days prior, 14 and 28 days) | SMC proliferation [3, 5] | neointimal formation in vein isografts ([4]; Senexin B 20 mg/kg/d intragastric, started 3 days prior to transplantation, 4 wk)
N#Cc1ccc2ncnc(NCCc3ccccc3)c2c1 [Senexin A] | suppressed | inhibited | without affecting | suppressed neointimal formation | 100 days |  |  |  | 
CN1CCN(C(=O)c2ccc3cc(CCNc4ncnc5ccc(C#N)cc45)ccc3c2)CC1 [Senexin B] |  |  |  |  |  | inhibited | inhibited | had no impact | suppressed neointimal formation
